# Results as given in ChEMBL document CHEMBL2429768, “Eco-friendly synthesis and antimicrobial activities of substituted-5-(1H-indol-3-yl)methylene)-2,2-dimethyl-1,3-dioxane-4,6-dione derivatives” (2013).
# What was measured:
# Assay type in all cases: functional
# Klebsiella pneumoniae [1] = assay: Antibacterial activity against Klebsiella pneumoniae at 500 ug/ml after 24 hrs by agar well diffusion method; details: read-out: DIZ
# Rhizoctonia solani [2] = assay: Antifungal activity against Rhizoctonia solani at 50 ug/ml after 72 hrs by agar well diffusion method; details: read-out: DIZ
# Aspergillus flavus [3] = assay: Antifungal activity against Aspergillus flavus after 72 hrs by agar well diffusion method
# Aspergillus niger [4] = assay: Antifungal activity against Aspergillus niger after 72 hrs by agar well diffusion method
# Fusarium oxysporum [5] = assay: Antifungal activity against Fusarium oxysporum after 72 hrs by agar well diffusion method
# Escherichia coli [6] = assay: Antibacterial activity against Escherichia coli ATCC 8739 after 24 hrs by agar well diffusion method; details: ATCC 8739, 24 h
# Aspergillus niger [7] = assay: Antifungal activity against Aspergillus niger at 100 ug/ml after 72 hrs by agar well diffusion method; details: read-out: DIZ
# Aspergillus flavus [8] = assay: Antifungal activity against Aspergillus flavus at 300 ug/ml after 72 hrs by agar well diffusion method; details: read-out: DIZ
# Fusarium oxysporum [9] = assay: Antifungal activity against Fusarium oxysporum at 100 ug/ml after 72 hrs by agar well diffusion method; details: read-out: DIZ
# Aspergillus flavus [10] = assay: Antifungal activity against Aspergillus flavus at 100 ug/ml after 72 hrs by agar well diffusion method; details: read-out: DIZ
# Bacillus subtilis [11] = assay: Antibacterial activity against Bacillus subtilis at 50 ug/ml after 24 hrs by agar well diffusion method; details: read-out: DIZ
# Klebsiella pneumoniae [12] = assay: Antibacterial activity against Klebsiella pneumoniae after 24 hrs by agar well diffusion method
# Fusarium oxysporum [13] = assay: Antifungal activity against Fusarium oxysporum at 200 ug/ml after 72 hrs by agar well diffusion method; details: read-out: DIZ
# Fusarium oxysporum [14] = assay: Antifungal activity against Fusarium oxysporum at 300 ug/ml after 72 hrs by agar well diffusion method; details: read-out: DIZ
# Escherichia coli [15] = assay: Antibacterial activity against Escherichia coli ATCC 8739 at 500 ug/ml after 24 hrs by agar well diffusion method; details: ATCC 8739, 24 h, read-out: DIZ
# Bacillus subtilis [16] = assay: Antibacterial activity against Bacillus subtilis at 500 ug/ml after 24 hrs by agar well diffusion method; details: read-out: DIZ
# Klebsiella pneumoniae [17] = assay: Antibacterial activity against Klebsiella pneumoniae at 200 ug/ml after 24 hrs by agar well diffusion method; details: read-out: DIZ
# Bacillus subtilis [18] = assay: Antibacterial activity against Bacillus subtilis at 300 ug/ml after 24 hrs by agar well diffusion method; details: read-out: DIZ
# Aspergillus flavus [19] = assay: Antifungal activity against Aspergillus flavus at 200 ug/ml after 72 hrs by agar well diffusion method; details: read-out: DIZ
# Aspergillus niger [20] = assay: Antifungal activity against Aspergillus niger at 50 ug/ml after 72 hrs by agar well diffusion method; details: read-out: DIZ
# Rhizoctonia solani [21] = assay: Antifungal activity against Rhizoctonia solani at 300 ug/ml after 72 hrs by agar well diffusion method; details: read-out: DIZ
# Klebsiella pneumoniae [22] = assay: Antibacterial activity against Klebsiella pneumoniae at 100 ug/ml after 24 hrs by agar well diffusion method; details: read-out: DIZ
# Aspergillus niger [23] = assay: Antifungal activity against Aspergillus niger at 500 ug/ml after 72 hrs by agar well diffusion method; details: read-out: DIZ
# Aspergillus flavus [24] = assay: Antifungal activity against Aspergillus flavus at 500 ug/ml after 72 hrs by agar well diffusion method; details: read-out: DIZ
# Staphylococcus aureus [25] = assay: Antibacterial activity against Staphylococcus aureus ATCC 6538 at 200 ug/ml after 24 hrs by agar well diffusion method; details: ATCC 6538, 24 h, read-out: DIZ
# Escherichia coli [26] = assay: Antibacterial activity against Escherichia coli ATCC 8739 at 300 ug/ml after 24 hrs by agar well diffusion method; details: ATCC 8739, 24 h, read-out: DIZ
# Fusarium oxysporum [27] = assay: Antifungal activity against Fusarium oxysporum at 50 ug/ml after 72 hrs by agar well diffusion method; details: read-out: DIZ
# Aspergillus flavus [28] = assay: Antifungal activity against Aspergillus flavus at 50 ug/ml after 72 hrs by agar well diffusion method; details: read-out: DIZ
# Fusarium oxysporum [29] = assay: Antifungal activity against Fusarium oxysporum at 500 ug/ml after 72 hrs by agar well diffusion method; details: read-out: DIZ
# Staphylococcus aureus [30] = assay: Antibacterial activity against Staphylococcus aureus ATCC 6538 at 500 ug/ml after 24 hrs by agar well diffusion method; details: ATCC 6538, 24 h, read-out: DIZ
# Escherichia coli [31] = assay: Antibacterial activity against Escherichia coli ATCC 8739 at 200 ug/ml after 24 hrs by agar well diffusion method; details: ATCC 8739, 24 h, read-out: DIZ
# Bacillus subtilis [32] = assay: Antibacterial activity against Bacillus subtilis at 200 ug/ml after 24 hrs by agar well diffusion method; details: read-out: DIZ
# Staphylococcus aureus [33] = assay: Antibacterial activity against Staphylococcus aureus ATCC 6538 at 50 ug/ml after 24 hrs by agar well diffusion method; details: ATCC 6538, 24 h, read-out: DIZ
# Staphylococcus aureus [34] = assay: Antibacterial activity against Staphylococcus aureus ATCC 6538 after 24 hrs by agar well diffusion method; details: ATCC 6538, 24 h
# Klebsiella pneumoniae [35] = assay: Antibacterial activity against Klebsiella pneumoniae at 300 ug/ml after 24 hrs by agar well diffusion method; details: read-out: DIZ
# Rhizoctonia solani [36] = assay: Antifungal activity against Rhizoctonia solani at 200 ug/ml after 72 hrs by agar well diffusion method; details: read-out: DIZ
# Staphylococcus aureus [37] = assay: Antibacterial activity against Staphylococcus aureus ATCC 6538 at 300 ug/ml after 24 hrs by agar well diffusion method; details: ATCC 6538, 24 h, read-out: DIZ
# Escherichia coli [38] = assay: Antibacterial activity against Escherichia coli ATCC 8739 at 50 ug/ml after 24 hrs by agar well diffusion method; details: ATCC 8739, 24 h, read-out: DIZ
# Rhizoctonia solani [39] = assay: Antifungal activity against Rhizoctonia solani at 500 ug/ml after 72 hrs by agar well diffusion method; details: read-out: DIZ
# Bacillus subtilis [40] = assay: Antibacterial activity against Bacillus subtilis after 24 hrs by agar well diffusion method
# Escherichia coli [41] = assay: Antibacterial activity against Escherichia coli ATCC 8739 at 100 ug/ml after 24 hrs by agar well diffusion method; details: ATCC 8739, 24 h, read-out: DIZ
# Staphylococcus aureus [42] = assay: Antibacterial activity against Staphylococcus aureus ATCC 6538 at 100 ug/ml after 24 hrs by agar well diffusion method; details: ATCC 6538, 24 h, read-out: DIZ
# Rhizoctonia solani [43] = assay: Antifungal activity against Rhizoctonia solani at 100 ug/ml after 72 hrs by agar well diffusion method; details: read-out: DIZ
# Aspergillus niger [44] = assay: Antifungal activity against Aspergillus niger at 300 ug/ml after 72 hrs by agar well diffusion method; details: read-out: DIZ
# Aspergillus niger [45] = assay: Antifungal activity against Aspergillus niger at 200 ug/ml after 72 hrs by agar well diffusion method; details: read-out: DIZ
# Klebsiella pneumoniae [46] = assay: Antibacterial activity against Klebsiella pneumoniae at 50 ug/ml after 24 hrs by agar well diffusion method; details: read-out: DIZ
# Rhizoctonia solani [47] = assay: Antifungal activity against Rhizoctonia solani after 72 hrs by agar well diffusion method
# Bacillus subtilis [48] = assay: Antibacterial activity against Bacillus subtilis at 100 ug/ml after 24 hrs by agar well diffusion method; details: read-out: DIZ
smiles,measurement,setting,value
COc1ccc2[nH]cc(C=C3C(=O)OC(C)(C)OC3=O)c2c1,zone of inhibition at 500 µg/mL,Klebsiella pneumoniae [1],34 mm
same,zone of inhibition at 50 µg/mL,Rhizoctonia solani [2],10 mm
same,MIC,Aspergillus flavus [3],35 µg/mL
same,MIC,Aspergillus niger [4],30 µg/mL
same,MIC,Fusarium oxysporum [5],25 µg/mL
same,MIC,Escherichia coli [6],10 µg/mL
same,zone of inhibition at 100 µg/mL,Aspergillus niger [7],12 mm
same,zone of inhibition at 300 µg/mL,Aspergillus flavus [8],13 mm
same,zone of inhibition at 100 µg/mL,Fusarium oxysporum [9],15 mm
same,zone of inhibition at 100 µg/mL,Aspergillus flavus [10],9 mm
same,zone of inhibition at 50 µg/mL,Bacillus subtilis [11],4 mm
same,MIC,Klebsiella pneumoniae [12],10 µg/mL
same,zone of inhibition at 200 µg/mL,Fusarium oxysporum [13],18 mm
same,zone of inhibition at 300 µg/mL,Fusarium oxysporum [14],24 mm
same,zone of inhibition at 500 µg/mL,Escherichia coli [15],33 mm
same,zone of inhibition at 500 µg/mL,Bacillus subtilis [16],22 mm
same,zone of inhibition at 200 µg/mL,Klebsiella pneumoniae [17],20 mm
same,zone of inhibition at 300 µg/mL,Bacillus subtilis [18],14 mm
same,zone of inhibition at 200 µg/mL,Aspergillus flavus [19],12 mm
same,zone of inhibition at 50 µg/mL,Aspergillus niger [20],7 mm
same,zone of inhibition at 300 µg/mL,Rhizoctonia solani [21],24 mm
same,zone of inhibition at 100 µg/mL,Klebsiella pneumoniae [22],16 mm
same,zone of inhibition at 500 µg/mL,Aspergillus niger [23],24 mm
same,zone of inhibition at 500 µg/mL,Aspergillus flavus [24],22 mm
same,zone of inhibition at 200 µg/mL,Staphylococcus aureus [25],15 mm
same,zone of inhibition at 300 µg/mL,Escherichia coli [26],22 mm
same,zone of inhibition at 50 µg/mL,Fusarium oxysporum [27],10 mm
same,zone of inhibition at 50 µg/mL,Aspergillus flavus [28],5 mm
same,zone of inhibition at 500 µg/mL,Fusarium oxysporum [29],30 mm
same,zone of inhibition at 500 µg/mL,Staphylococcus aureus [30],28 mm
same,zone of inhibition at 200 µg/mL,Escherichia coli [31],17 mm
same,zone of inhibition at 200 µg/mL,Bacillus subtilis [32],11 mm
same,zone of inhibition at 50 µg/mL,Staphylococcus aureus [33],8 mm
same,MIC,Staphylococcus aureus [34],20 µg/mL
same,zone of inhibition at 300 µg/mL,Klebsiella pneumoniae [35],25 mm
same,zone of inhibition at 200 µg/mL,Rhizoctonia solani [36],19 mm
same,zone of inhibition at 300 µg/mL,Staphylococcus aureus [37],18 mm
same,zone of inhibition at 50 µg/mL,Escherichia coli [38],10 mm
same,zone of inhibition at 500 µg/mL,Rhizoctonia solani [39],31 mm
same,MIC,Bacillus subtilis [40],20 µg/mL
same,zone of inhibition at 100 µg/mL,Escherichia coli [41],15 mm
same,zone of inhibition at 100 µg/mL,Staphylococcus aureus [42],12 mm
same,zone of inhibition at 100 µg/mL,Rhizoctonia solani [43],15 mm
same,zone of inhibition at 300 µg/mL,Aspergillus niger [44],14 mm
same,zone of inhibition at 200 µg/mL,Aspergillus niger [45],15 mm
same,zone of inhibition at 50 µg/mL,Klebsiella pneumoniae [46],11 mm
same,MIC,Rhizoctonia solani [47],25 µg/mL
same,zone of inhibition at 100 µg/mL,Bacillus subtilis [48],9 mm
Cn1cc(C=C2C(=O)OC(C)(C)OC2=O)c2cc([N+](=O)[O-])ccc21,zone of inhibition at 500 µg/mL,Klebsiella pneumoniae [1],31 mm
same,zone of inhibition at 50 µg/mL,Rhizoctonia solani [2],7 mm
same,MIC,Aspergillus flavus [3],40 µg/mL
same,MIC,Aspergillus niger [4],40 µg/mL
same,MIC,Fusarium oxysporum [5],35 µg/mL
same,MIC,Escherichia coli [6],15 µg/mL
same,zone of inhibition at 100 µg/mL,Aspergillus niger [7],10 mm
same,zone of inhibition at 300 µg/mL,Aspergillus flavus [8],15 mm
same,zone of inhibition at 100 µg/mL,Fusarium oxysporum [9],12 mm
same,zone of inhibition at 100 µg/mL,Aspergillus flavus [10],9 mm
same,zone of inhibition at 50 µg/mL,Bacillus subtilis [11],4 mm
same,MIC,Klebsiella pneumoniae [12],15 µg/mL
same,zone of inhibition at 200 µg/mL,Fusarium oxysporum [13],16 mm
same,zone of inhibition at 300 µg/mL,Fusarium oxysporum [14],21 mm
same,zone of inhibition at 500 µg/mL,Escherichia coli [15],30 mm
same,zone of inhibition at 500 µg/mL,Bacillus subtilis [16],23 mm
same,zone of inhibition at 200 µg/mL,Klebsiella pneumoniae [17],18 mm
same,zone of inhibition at 300 µg/mL,Bacillus subtilis [18],15 mm
same,zone of inhibition at 200 µg/mL,Aspergillus flavus [19],12 mm
same,zone of inhibition at 50 µg/mL,Aspergillus niger [20],6 mm
same,zone of inhibition at 300 µg/mL,Rhizoctonia solani [21],21 mm
same,zone of inhibition at 100 µg/mL,Klebsiella pneumoniae [22],14 mm
same,zone of inhibition at 500 µg/mL,Aspergillus niger [23],25 mm
same,zone of inhibition at 500 µg/mL,Aspergillus flavus [24],23 mm
same,zone of inhibition at 200 µg/mL,Staphylococcus aureus [25],14 mm
same,zone of inhibition at 300 µg/mL,Escherichia coli [26],20 mm
same,zone of inhibition at 50 µg/mL,Fusarium oxysporum [27],7 mm
same,zone of inhibition at 50 µg/mL,Aspergillus flavus [28],4 mm
same,zone of inhibition at 500 µg/mL,Fusarium oxysporum [29],29 mm
same,zone of inhibition at 500 µg/mL,Staphylococcus aureus [30],25 mm
same,zone of inhibition at 200 µg/mL,Escherichia coli [31],16 mm
same,zone of inhibition at 200 µg/mL,Bacillus subtilis [32],12 mm
same,zone of inhibition at 50 µg/mL,Staphylococcus aureus [33],6 mm
same,MIC,Staphylococcus aureus [34],25 µg/mL
same,zone of inhibition at 300 µg/mL,Klebsiella pneumoniae [35],23 mm
same,zone of inhibition at 200 µg/mL,Rhizoctonia solani [36],16 mm
same,zone of inhibition at 300 µg/mL,Staphylococcus aureus [37],18 mm
same,zone of inhibition at 50 µg/mL,Escherichia coli [38],8 mm
same,zone of inhibition at 500 µg/mL,Rhizoctonia solani [39],29 mm
same,MIC,Bacillus subtilis [40],30 µg/mL
same,zone of inhibition at 100 µg/mL,Escherichia coli [41],13 mm
same,zone of inhibition at 100 µg/mL,Staphylococcus aureus [42],10 mm
same,zone of inhibition at 100 µg/mL,Rhizoctonia solani [43],12 mm
same,zone of inhibition at 300 µg/mL,Aspergillus niger [44],18 mm
same,zone of inhibition at 200 µg/mL,Aspergillus niger [45],14 mm
same,zone of inhibition at 50 µg/mL,Klebsiella pneumoniae [46],9 mm
same,MIC,Rhizoctonia solani [47],35 µg/mL
same,zone of inhibition at 100 µg/mL,Bacillus subtilis [48],9 mm
